Activity calls are given as the source filed them. The calls are words filed in the database; no cut-off is given here.
Each compound was assayed against Tumor necrosis factor (Homo sapiens) (UniProt P01375) (assay: Inhibition of TNFalpha (unknown origin)-induced adhesion of BCECF fluorescence-labeled human U937 cells to human HT-29 cells at 10 uM measured at 3 hrs post TNFalpha stimulation relative to control).
Sequence of Tumor necrosis factor (Homo sapiens) (P01375 whole entry): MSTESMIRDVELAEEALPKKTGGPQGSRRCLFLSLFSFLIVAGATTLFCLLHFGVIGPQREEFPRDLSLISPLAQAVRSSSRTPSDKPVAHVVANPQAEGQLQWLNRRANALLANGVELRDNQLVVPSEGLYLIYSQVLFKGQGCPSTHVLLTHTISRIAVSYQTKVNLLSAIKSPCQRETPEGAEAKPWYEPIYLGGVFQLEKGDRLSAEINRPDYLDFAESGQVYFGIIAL
`O=C1/C(=C/c2cccnc2)Cc2c(O)cccc21` gave an inhibition of 70.8%.
`O=C1/C(=C/c2ccccn2)Cc2c(O)cccc21` gave an inhibition of 64.5%.
For `CC(C)Oc1cccc2c1C/C(=C\c1ccncc1)C2=O`, the inhibition was 60.9%.
In the case of `O=C1/C(=C/c2ccccn2)Cc2ccc(O)cc21`, the inhibition is reported as 54.8%.
Work on `CC(C)Oc1ccc2c(c1)C(=O)/C(=C/c1ccncc1)C2` yielded an inhibition of 45.7%.
Work on `O=C1/C(=C/c2ccccn2)Cc2cc(O)ccc21` yielded an inhibition of 58.1%.
Work on `O=C1/C(=C/c2ccncc2)Cc2c(O)cccc21` yielded an inhibition of 78%.
`COc1ccc2c(c1)C(=O)/C(=C/c1ccncc1)C2` was tested, and the inhibition was 4.1%.
In the case of `CCOc1cccc2c1C/C(=C\c1ccncc1)C2=O`, the inhibition is reported as 51.2%.
For `O=C1/C(=C/c2ccncc2)Cc2ccc(O)cc21`, the inhibition was 85.5%.
Work on `COc1cccc2c1C/C(=C\c1ccncc1)C2=O` yielded an inhibition of 5.9%.
For `O=C1/C(=C/c2cccnc2)Cc2cc(O)ccc21`, the inhibition was 67%.
`O=C1/C(=C/c2ccncc2)Cc2cccc(O)c21` showed an inhibition of 74.6%.
Work on `O=C1/C(=C/c2cccnc2)Cc2ccc(O)cc21` yielded an inhibition of 74.7%.
Compound `CCOc1ccc2c(c1)C(=O)/C(=C/c1ccncc1)C2` has an inhibition of 7.3%.
For `O=C1/C(=C/c2ccncc2)Cc2cc(O)ccc21`, the inhibition was 26.6%.
`O=C1/C(=C/c2cccnc2)Cc2cccc(O)c21` gave an inhibition of 46.1%.
Compound `O=C1/C(=C/c2ccccn2)Cc2cccc(O)c21` has an inhibition of 46.2%.

The compounds below were run against Tumor necrosis factor (Homo sapiens) (UniProt P01375) (assay: Inhibition of TNFalpha (unknown origin)-induced adhesion of BCECF fluorescence-labeled human U937 cells to human HT-29 cells at 20 mM measured at 3 hrs post TNFalpha stimulation relative to control).
`Nc1ccc(O)c(C(=O)O)c1` was tested, and the inhibition was 52.1%.

Each compound was assayed against Tumor necrosis factor (Homo sapiens) (UniProt P01375) (assay: Potency index, ratio of test compound activity to 5-aminosalicylate activity for inhibition of TNFalpha (unknown origin)-induced adhesion of BCECF fluorescence-labeled human U937 cells to human HT-29 cells).
`O=C1/C(=C/c2cccnc2)Cc2c(O)cccc21` showed a Ratio of 7 to 23.
`O=C1/C(=C/c2ccccn2)Cc2c(O)cccc21` was tested, and the Ratio was 7 to 23.
`O=C1/C(=C/c2ccccn2)Cc2ccc(O)cc21` was tested, and the Ratio was 7 to 23.
With `O=C1/C(=C/c2ccccn2)Cc2cc(O)ccc21` the Ratio was 7 to 23.
Compound `O=C1/C(=C/c2ccncc2)Cc2c(O)cccc21` has a Ratio of 7 to 23.
`O=C1/C(=C/c2ccncc2)Cc2ccc(O)cc21` was tested, and the Ratio was 7 to 23.
Compound `O=C1/C(=C/c2cccnc2)Cc2cc(O)ccc21` has a Ratio of 7 to 23.
Compound `O=C1/C(=C/c2ccncc2)Cc2cccc(O)c21` has a Ratio of 7 to 23.
Work on `O=C1/C(=C/c2cccnc2)Cc2ccc(O)cc21` yielded a Ratio of 7 to 23.
`O=C1/C(=C/c2ccncc2)Cc2cc(O)ccc21` gave a Ratio of 7 to 23.
Compound `O=C1/C(=C/c2cccnc2)Cc2cccc(O)c21` has a Ratio of 7 to 23.
`O=C1/C(=C/c2ccccn2)Cc2cccc(O)c21` gave a Ratio of 7 to 23.

Each compound was assayed against Tumor necrosis factor (Homo sapiens) (UniProt P01375) (assay: Potency index, ratio of 5-aminosalicylate IC50 to test compound IC50 for TNFalpha (unknown origin)-induced adhesion of BCECF fluorescence-labeled human U937 cells to human HT-29).
With `O=C1/C(=C/c2ccncc2)Cc2ccc(O)cc21` the Ratio IC50 was over 10000.

What follows are compounds tested against Tumor necrosis factor (Homo sapiens) (UniProt P01375) (assay: Inhibition of TNFalpha (unknown origin)-induced ICAM-1 expression in human HT-29 cells at 10 uM preincubated with cells for 1 hr followed by TNFalpha induction of 3 hrs by Western blot analysis).
Assay type: cell-based
`O=C1/C(=C/c2ccncc2)Cc2c(O)cccc21` was tested, and the inhibition was “Active”.
In the case of `O=C1/C(=C/c2ccncc2)Cc2ccc(O)cc21`, the inhibition is reported as “Active”.

The compounds below were run against Tumor necrosis factor (Homo sapiens) (UniProt P01375) (assay: Inhibition of TNFalpha (unknown origin)-induced MCP-1 expression in human HT-29 cells at 10 uM preincubated with cells for 1 hr followed by TNFalpha induction of 3 hrs by Western blot analysis).
Assay type: cell-based
`O=C1/C(=C/c2ccncc2)Cc2c(O)cccc21` was tested, and the inhibition was “Active”.
In the case of `O=C1/C(=C/c2ccncc2)Cc2ccc(O)cc21`, the inhibition is reported as “Active”.

Each compound was assayed against Tumor necrosis factor (Homo sapiens) (UniProt P01375) (assay: Inhibition of TNFalpha (unknown origin)-induced NFkappaB transcriptional activity in human HT-29 cells at 10 uM pretreated with cells for 1 hr followed by TNFalpha induction for 3 hrs by dual luciferase reporter gene assay).
Assay type: cell-based
`O=C1/C(=C/c2cccnc2)Cc2c(O)cccc21` was tested, and the inhibition was “Active”.
With `O=C1/C(=C/c2ccncc2)Cc2c(O)cccc21` the inhibition was “Active”.
With `O=C1/C(=C/c2ccncc2)Cc2ccc(O)cc21` the inhibition was “Active”.
In the case of `O=C1/C(=C/c2ccncc2)Cc2cccc(O)c21`, the inhibition is reported as “Active”.
With `O=C1/C(=C/c2cccnc2)Cc2ccc(O)cc21` the inhibition was “Active”.

These compounds were tested against Tumor necrosis factor (Homo sapiens) (UniProt P01375) (assay: Inhibition of TNFalpha (unknown origin)-induced decrease in E-cadherin expression in human HT-29 cells at 10 uM pretreated with cells for 1 hr followed by TNFalpha induction for 3 hrs by Western blot analysis).
Assay type: cell-based
In the case of `O=C1/C(=C/c2cccnc2)Cc2c(O)cccc21`, the inhibition is reported as “inactive”.
With `O=C1/C(=C/c2ccncc2)Cc2c(O)cccc21` the inhibition was “Active”.
In the case of `O=C1/C(=C/c2ccncc2)Cc2ccc(O)cc21`, the inhibition is reported as “Active”.
In the case of `O=C1/C(=C/c2ccncc2)Cc2cccc(O)c21`, the inhibition is reported as “inactive”.
In the case of `O=C1/C(=C/c2cccnc2)Cc2ccc(O)cc21`, the inhibition is reported as “inactive”.

What follows are compounds tested against Tumor necrosis factor (Homo sapiens) (UniProt P01375) (assay: Inhibition of TNFalpha (unknown origin)-induced SNAIL expression in human HT-29 cells at 10 uM pretreated with cells for 1 hr followed by TNFalpha induction for 3 hrs by Western blot analysis).
Assay type: cell-based
With `O=C1/C(=C/c2ccncc2)Cc2c(O)cccc21` the inhibition was “Active”.
In the case of `O=C1/C(=C/c2ccncc2)Cc2ccc(O)cc21`, the inhibition is reported as “Active”.

What follows are compounds tested on Rattus norvegicus (assay: In vivo of inhibition of TNBS-induced decrease in body weight in TNBS-induced colitis Sprague-Dawley rat model at 25 mg/kg/day, po administered on day of TNBS administration and on four consecutive days measured on day 6).
Assay type: functional, organism-based
For `O=C1/C(=C/c2ccncc2)Cc2c(O)cccc21`, the inhibition was “Active”.
For `O=C1/C(=C/c2ccncc2)Cc2ccc(O)cc21`, the inhibition was “Active”.

These compounds were tested on Rattus norvegicus (assay: In vivo of inhibition of TNBS-induced increase in colon weight in TNBS-induced colitis Sprague-Dawley rat model at 25 mg/kg/day, po administered on day of TNBS administration and on four consecutive days measured on day 6).
Assay type: functional, organism-based
In the case of `O=C1/C(=C/c2ccncc2)Cc2c(O)cccc21`, the inhibition is reported as “Active”.
With `O=C1/C(=C/c2ccncc2)Cc2ccc(O)cc21` the inhibition was “Active”.

What follows are compounds tested on Rattus norvegicus (assay: In vivo of inhibition of TNBS-induced decrease in body weight in TNBS-induced colitis Sprague-Dawley rat model at 300 mg/kg/day, po administered on day of TNBS administration and on four consecutive days measured on day 6).
Assay type: functional, organism-based
In the case of `O=C(O)c1cc(/N=N/c2ccc(S(=O)(=O)Nc3ccccn3)cc2)ccc1O`, the inhibition is reported as “Active”.

Each compound was assayed on Rattus norvegicus (assay: In vivo of inhibition of TNBS-induced increase in colon weight in TNBS-induced colitis Sprague-Dawley rat model at 300 mg/kg/day, po administered on day of TNBS administration and on four consecutive days measured on day 6).
Assay type: functional, organism-based
With `O=C(O)c1cc(/N=N/c2ccc(S(=O)(=O)Nc3ccccn3)cc2)ccc1O` the inhibition was “Active”.

The compounds below were run on Rattus norvegicus (assay: In vivo of inhibition of TNBS-induced increase in myeloperoxidase level in TNBS-induced colitis Sprague-Dawley rat model colon tissue at 25 mg/kg/day, po administered on day of TNBS administration and on four consecutive days measured on day 6).
Assay type: functional, organism-based
For `O=C1/C(=C/c2ccncc2)Cc2c(O)cccc21`, the inhibition was “Active”.
With `O=C1/C(=C/c2ccncc2)Cc2ccc(O)cc21` the inhibition was “Active”.

The compounds below were run on Rattus norvegicus (assay: In vivo of inhibition of TNBS-induced increase in myeloperoxidase level in TNBS-induced colitis Sprague-Dawley rat model colon tissue at 300 mg/kg/day, po administered on day of TNBS administration and on four consecutive days measured on day 6).
Assay type: functional, organism-based
For `O=C(O)c1cc(/N=N/c2ccc(S(=O)(=O)Nc3ccccn3)cc2)ccc1O`, the inhibition was “Active”.

Each compound was assayed on Rattus norvegicus (assay: In vivo of inhibition of TNBS-induced up-regulation of TNFalpha in TNBS-induced colitis Sprague-Dawley rat model at 25 mg/kg/day, po administered on day of TNBS administration and on four consecutive days measured on day 6 by Western blot method).
Assay type: functional, organism-based
`O=C1/C(=C/c2ccncc2)Cc2c(O)cccc21` was tested, and the inhibition was “Active”.
For `O=C1/C(=C/c2ccncc2)Cc2ccc(O)cc21`, the inhibition was “Active”.

These compounds were tested on Rattus norvegicus (assay: In vivo of inhibition of TNBS-induced up-regulation of IL-1beta in TNBS-induced colitis Sprague-Dawley rat model at 25 mg/kg/day, po administered on day of TNBS administration and on four consecutive days measured on day 6 by Western blot method).
Assay type: functional, organism-based
For `O=C1/C(=C/c2ccncc2)Cc2c(O)cccc21`, the inhibition was “Active”.
With `O=C1/C(=C/c2ccncc2)Cc2ccc(O)cc21` the inhibition was “Active”.

The compounds below were run on Rattus norvegicus (assay: In vivo of inhibition of TNFalpha-induced up-regulation of ICAM-1 expression in TNBS-induced colitis Sprague-Dawley rat model at 25 mg/kg/day, po administered on day of TNBS administration and on four consecutive days measured on day 6 by Western blot method).
Assay type: functional, organism-based
With `O=C1/C(=C/c2ccncc2)Cc2c(O)cccc21` the inhibition was “Active”.
For `O=C1/C(=C/c2ccncc2)Cc2ccc(O)cc21`, the inhibition was “Active”.

Each compound was assayed on Rattus norvegicus (assay: In vivo of inhibition of TNFalpha-induced up-regulation of MCP-1 expression in TNBS-induced colitis Sprague-Dawley rat model at 25 mg/kg/day, po administered on day of TNBS administration and on four consecutive days measured on day 6 by Western blot method).
Assay type: functional, organism-based
For `O=C1/C(=C/c2ccncc2)Cc2c(O)cccc21`, the inhibition was “Active”.
`O=C1/C(=C/c2ccncc2)Cc2ccc(O)cc21` was tested, and the inhibition was “Active”.

What follows are compounds tested on Rattus norvegicus (assay: In vivo of inhibition of TNFalpha-induced decrease in E-cadherin expression in TNBS-induced colitis Sprague-Dawley rat model at 25 mg/kg/day, po administered on day of TNBS administration and on four consecutive days measured on day 6 by Western blot method).
Assay type: functional, organism-based
With `O=C1/C(=C/c2ccncc2)Cc2c(O)cccc21` the inhibition was “Active”.
In the case of `O=C1/C(=C/c2ccncc2)Cc2ccc(O)cc21`, the inhibition is reported as “Active”.

These compounds were tested on Rattus norvegicus (assay: In vivo of inhibition of TNFalpha-induced SNAIL expression in TNBS-induced colitis Sprague-Dawley rat model at 25 mg/kg/day, po administered on day of TNBS administration and on four consecutive days measured on day 6 by Western blot method).
Assay type: functional, organism-based
With `O=C1/C(=C/c2ccncc2)Cc2c(O)cccc21` the inhibition was “Active”.
`O=C1/C(=C/c2ccncc2)Cc2ccc(O)cc21` was tested, and the inhibition was “Active”.

From ChEMBL document CHEMBL4118274, “Synthesis and biological evaluation of pyridine-linked indanone derivatives: Potential agents for inflammatory bowel disease” (Bioorg Med Chem Lett, 2018)
